Values joined by “and” are separate entries in the source; they are usually repeats but may differ in a detail not shown here. Identical values can stand only once. Numbers after ± are expanded uncertainties.
Conditions: Liquid, Transpiration method

Compound: CCCCCCCCCCCCCCCC#N [hexadecanenitrile]
- vapor or sublimation pressure (345.1 K): 0.00096 ± 5e-05 kPa
- vapor or sublimation pressure (348.1 K): 0.00128 ± 6e-05 kPa
- vapor or sublimation pressure (351.2 K): 0.00165 ± 8e-05 kPa
- vapor or sublimation pressure (354.2 K): 0.00212 ± 0.00011 kPa
- vapor or sublimation pressure (357.2 K): 0.00262 ± 0.00013 kPa
- vapor or sublimation pressure (360.2 K): 0.00342 ± 0.00017 kPa
- vapor or sublimation pressure (363.2 K): 0.00434 ± 0.00022 kPa
- vapor or sublimation pressure (366.2 K): 0.00532 ± 0.00027 kPa
- vapor or sublimation pressure (369.2 K): 0.00658 ± 0.00033 kPa
- vapor or sublimation pressure (372.1 K): 0.00826 ± 0.00041 kPa
- vapor or sublimation pressure (376.2 K): 0.0112 ± 0.00056 kPa
- vapor or sublimation pressure (379.2 K): 0.0136 ± 0.00068 kPa
- vapor or sublimation pressure (382.2 K): 0.01642 ± 0.00082 kPa

Compound: CCCCCCCCCCCC#N [n-dodecanenitrile]
- vapor or sublimation pressure (298.2 K): 0.00052 ± 3e-05 kPa
- vapor or sublimation pressure (301.2 K): 0.00071 ± 4e-05 kPa
- vapor or sublimation pressure (306.1 K): 0.00111 ± 6e-05 kPa
- vapor or sublimation pressure (312.2 K): 0.00186 ± 9e-05 kPa
- vapor or sublimation pressure (315.1 K): 0.00239 ± 0.00012 kPa
- vapor or sublimation pressure (318.2 K): 0.00323 ± 0.00016 kPa
- vapor or sublimation pressure (319.2 K): 0.0036 ± 0.00018 kPa
- vapor or sublimation pressure (322.2 K): 0.00462 ± 0.00023 kPa
- vapor or sublimation pressure (325.2 K): 0.0059 ± 0.0003 kPa
- vapor or sublimation pressure (328.2 K): 0.00742 ± 0.00037 kPa
- vapor or sublimation pressure (331.2 K): 0.00936 ± 0.00047 kPa
- vapor or sublimation pressure (334.2 K): 0.0117 ± 0.00059 kPa
- vapor or sublimation pressure (337.2 K): 0.01464 ± 0.00073 kPa
- vapor or sublimation pressure (340.2 K): 0.01821 ± 0.00091 kPa
- vapor or sublimation pressure (343.2 K): 0.02303 ± 0.0011 kPa
- vapor or sublimation pressure (346.2 K): 0.02783 ± 0.0014 kPa
- vapor or sublimation pressure (349.2 K): 0.03419 ± 0.0017 kPa
- vapor or sublimation pressure (352.3 K): 0.04237 ± 0.0021 kPa
- vapor or sublimation pressure (355.3 K): 0.05317 ± 0.0027 kPa
- vapor or sublimation pressure (358.2 K): 0.06363 ± 0.0032 kPa
- vapor or sublimation pressure (361.2 K): 0.07929 ± 0.004 kPa
- vapor or sublimation pressure (364.2 K): 0.09431 ± 0.0047 kPa
- vapor or sublimation pressure (367.1 K): 0.1148 ± 0.0057 kPa

Compound: CCCCCCCCC#N [nonanenitrile]
- vapor or sublimation pressure (285.2 K): 0.0039 ± 0.0002 kPa
- vapor or sublimation pressure (286.2 K): 0.00449 ± 0.00022 kPa
- vapor or sublimation pressure (288.2 K): 0.00519 ± 0.00026 kPa
- vapor or sublimation pressure (290.2 K): 0.0064 ± 0.00032 kPa
- vapor or sublimation pressure (291.7 K): 0.00714 ± 0.00036 kPa
- vapor or sublimation pressure (293.2 K): 0.00797 ± 0.0004 kPa
- vapor or sublimation pressure (295.2 K): 0.00992 ± 0.0005 kPa
- vapor or sublimation pressure (296.2 K): 0.01052 ± 0.00053 kPa
- vapor or sublimation pressure (298.2 K): 0.0124 ± 0.00062 kPa
- vapor or sublimation pressure (299.2 K): 0.0135 ± 0.00068 kPa
- vapor or sublimation pressure (301.2 K): 0.01585 ± 0.00079 kPa
- vapor or sublimation pressure (302.2 K): 0.01722 ± 0.00086 kPa
- vapor or sublimation pressure (304.2 K): 0.0198 ± 0.00099 kPa
- vapor or sublimation pressure (305.2 K): 0.02231 ± 0.0011 kPa
- vapor or sublimation pressure (307.2 K): 0.02482 ± 0.0012 kPa
- vapor or sublimation pressure (308.2 K): 0.02855 ± 0.0014 kPa
- vapor or sublimation pressure (310.2 K): 0.03154 ± 0.0016 kPa
- vapor or sublimation pressure (311.2 K): 0.03619 ± 0.0018 kPa
- vapor or sublimation pressure (313.2 K): 0.04037 ± 0.002 kPa
- vapor or sublimation pressure (316.2 K): 0.05039 ± 0.0025 kPa and 0.05346 ± 0.0027 kPa
- vapor or sublimation pressure (319.2 K): 0.06245 ± 0.0031 kPa
- vapor or sublimation pressure (320.2 K): 0.06797 ± 0.0034 kPa
- vapor or sublimation pressure (323.2 K): 0.08366 ± 0.0042 kPa

Compound: CCCCCCCC#N [octanenitrile]
- vapor or sublimation pressure (283.2 K): 0.01192 ± 0.0006 kPa
- vapor or sublimation pressure (286.2 K): 0.0152 ± 0.00076 kPa
- vapor or sublimation pressure (289.2 K): 0.01964 ± 0.00098 kPa
- vapor or sublimation pressure (292.2 K): 0.02498 ± 0.0013 kPa
- vapor or sublimation pressure (295.2 K): 0.03092 ± 0.0015 kPa
- vapor or sublimation pressure (298.2 K): 0.03898 ± 0.0019 kPa
- vapor or sublimation pressure (301.2 K): 0.04949 ± 0.0025 kPa and 0.04849 ± 0.0024 kPa
- vapor or sublimation pressure (304.2 K): 0.06148 ± 0.0031 kPa
- vapor or sublimation pressure (307.1 K): 0.07561 ± 0.0038 kPa
- vapor or sublimation pressure (310.2 K): 0.09243 ± 0.0046 kPa and 0.09473 ± 0.0047 kPa

Compound: CCCCCCCCCCCCCC#N [tetradecanenitrile]
- vapor or sublimation pressure (327.2 K): 0.00109 ± 5e-05 kPa
- vapor or sublimation pressure (330.2 K): 0.00139 ± 7e-05 kPa
- vapor or sublimation pressure (333.2 K): 0.00183 ± 9e-05 kPa
- vapor or sublimation pressure (336.2 K): 0.00236 ± 0.00012 kPa
- vapor or sublimation pressure (339.2 K): 0.00306 ± 0.00015 kPa
- vapor or sublimation pressure (342.1 K): 0.00383 ± 0.00019 kPa
- vapor or sublimation pressure (345.2 K): 0.00491 ± 0.00025 kPa
- vapor or sublimation pressure (348.1 K): 0.00628 ± 0.00031 kPa
- vapor or sublimation pressure (351.2 K): 0.00777 ± 0.00039 kPa
- vapor or sublimation pressure (354.2 K): 0.00982 ± 0.00049 kPa
- vapor or sublimation pressure (357.2 K): 0.01221 ± 0.00061 kPa
- vapor or sublimation pressure (360.2 K): 0.01474 ± 0.00074 kPa
- vapor or sublimation pressure (363.2 K): 0.01847 ± 0.00092 kPa
- vapor or sublimation pressure (366.2 K): 0.02305 ± 0.0011 kPa
- vapor or sublimation pressure (369.2 K): 0.02799 ± 0.0014 kPa

Reference: the NIST ThermoML archive (doi:10.1016/j.jct.2004.08.004)
